In brackets after ≈: the same amount, converted by molar mass.
Columns and labels:
[1] = system: Mycobacterium tuberculosis; test: Antitubercular activity against Mycobacterium tuberculosis after 5 days by microplate Alamar blue assay; type: functional; conditions: 120 h
[2] = system: Mycobacterium tuberculosis; test: Antitubercular activity against Mycobacterium tuberculosis H37Rv after 5 days by microplate Alamar blue assay; type: functional; conditions: for MIC: Mycobacterium tuberculosis, H37Rv, 120 h

`Cc1cc(=O)oc2cc(OCc3cn(Cc4cc(=O)oc5ccc(Cl)cc45)nn3)ccc12` gave an MIC [1] of 6.25 µg/mL (≈ 13.9 µM).

`COc1ccc(OCc2cn(Cc3cc(=O)oc4cc(C)ccc34)nn2)cc1` was tested, and the “-logMIC” value [2] was 4.3 and the MIC [2] was 50 µg/mL (≈ 132 µM).

For `Cc1ccc2oc(=O)cc(Cn3cc(COc4ccc(OCc5cn(Cc6cc(=O)oc7ccc(C)cc67)nn5)cc4)nn3)c2c1`, the “-logMIC” value [2] was 6.69 and the MIC [2] was 0.2 µg/mL (≈ 0.324 µM).

In the case of `COc1ccc2oc(=O)cc(Cn3cc(COc4ccc(Br)cc4)nn3)c2c1`, the “-logMIC” value [2] is reported as 4.3 and the MIC [2] is reported as 50 µg/mL (≈ 113 µM).

For `Cc1ccc2c(Cn3cc(COc4ccc(Br)cc4)nn3)cc(=O)oc2c1`, the “-logMIC” value [2] was 4.3 and the MIC [2] was 50 µg/mL (≈ 117 µM).

`COc1ccc(OCc2cn(Cc3cc(=O)oc4ccc(C)cc34)nn2)cc1` was tested, and the “-logMIC” value [2] was 4.3 and the MIC [2] was 50 µg/mL (≈ 132 µM).

For `O=c1cc(Cn2cc(COc3ccc(Br)cc3)nn2)c2ccc(Cl)cc2o1`, the “-logMIC” value [2] was 4.3 and the MIC [2] was 50 µg/mL (≈ 112 µM).

In the case of `Cc1ccc2c(Cn3cc(COc4ccc(OCc5cn(Cc6cc(=O)oc7c(C)c(C)ccc67)nn5)cc4)nn3)cc(=O)oc2c1C`, the “-logMIC” value [2] is reported as 5.5 and the MIC [2] is reported as 3.12 µg/mL (≈ 4.85 µM).

For `COc1ccc(OCc2cn(Cc3cc(=O)oc4cc(C)cc(C)c34)nn2)cc1`, the “-logMIC” value [2] was 4.3 and the MIC [2] was 50 µg/mL (≈ 128 µM).

`COc1ccc(OCc2cn(Cc3cc(=O)oc4ccc5ccccc5c34)nn2)cc1` was tested, and the “-logMIC” value [2] was 4.3 and the MIC [2] was 50 µg/mL (≈ 121 µM).

In the case of `COc1ccc(OCc2cn(Cc3cc(=O)oc4ccc(OC)cc34)nn2)cc1`, the “-logMIC” value [2] is reported as 4.3 and the MIC [2] is reported as 50 µg/mL (≈ 127 µM).

`COc1ccc(OCc2cn(Cc3cc(=O)oc4ccc(Br)cc34)nn2)cc1` was tested, and the “-logMIC” value [2] was 4.3 and the MIC [2] was 50 µg/mL (≈ 113 µM).

With `O=c1cc(Cn2cc(COc3ccc(Br)cc3)nn2)c2ccc3ccccc3c2o1` the “-logMIC” value [2] was 4 and the MIC [2] was 100 µg/mL (≈ 216 µM).

With `COc1ccc(OCc2cn(Cc3cc(=O)oc4cc(OC)ccc34)nn2)cc1` the “-logMIC” value [2] was 4.3 and the MIC [2] was 50 µg/mL (≈ 127 µM).

For `Cc1ccc2c(Cn3cc(COc4ccc(Cl)cc4)nn3)cc(=O)oc2c1`, the “-logMIC” value [2] was 4.3 and the MIC [2] was 50 µg/mL (≈ 131 µM).

In the case of `COc1ccc(OCc2cn(Cc3cc(=O)oc4c3ccc3ccccc34)nn2)cc1`, the “-logMIC” value [2] is reported as 4.3 and the MIC [2] is reported as 50 µg/mL (≈ 121 µM).

`O=c1cc(Cn2cc(COc3ccc(Br)cc3)nn2)c2cc(Br)ccc2o1` was tested, and the “-logMIC” value [2] was 4.3 and the MIC [2] was 50 µg/mL (≈ 102 µM).

For `COc1ccc(OCc2cn(Cc3cc(=O)oc4cc(Cl)ccc34)nn2)cc1`, the “-logMIC” value [2] was 4.3 and the MIC [2] was 50 µg/mL (≈ 126 µM).

In the case of `Cc1cc(C)c2c(Cn3cc(COc4ccc(OCc5cn(Cc6cc(=O)oc7cc(C)cc(C)c67)nn5)cc4)nn3)cc(=O)oc2c1`, the “-logMIC” value [2] is reported as 5.2 and the MIC [2] is reported as 6.25 µg/mL (≈ 9.69 µM).

In the case of `Cc1ccc2c(Cn3cc(COc4ccc(OCc5cn(Cc6cc(=O)oc7cc(C)ccc67)nn5)cc4)nn3)cc(=O)oc2c1`, the “-logMIC” value [2] is reported as 5.2 and the MIC [2] is reported as 6.25 µg/mL (≈ 10.1 µM).

`Cc1ccc2oc(=O)cc(Cn3cc(COc4ccc(Br)cc4)nn3)c2c1` was tested, and the “-logMIC” value [2] was 4.3 and the MIC [2] was 50 µg/mL (≈ 117 µM).

With `COc1ccc2c(Cn3cc(COc4ccc(OCc5cn(Cc6cc(=O)oc7cc(OC)ccc67)nn5)cc4)nn3)cc(=O)oc2c1` the “-logMIC” value [2] was 5.2 and the MIC [2] was 6.25 µg/mL (≈ 9.64 µM).

`O=c1cc(Cn2cc(COc3ccc(Br)cc3)nn2)c2c(ccc3ccccc32)o1` was tested, and the “-logMIC” value [2] was 4 and the MIC [2] was 50 µg/mL (≈ 108 µM).

`Cc1ccc2oc(=O)cc(Cn3cc(COc4ccc(Cl)cc4)nn3)c2c1` was tested, and the “-logMIC” value [2] was 4.3 and the MIC [2] was 50 µg/mL (≈ 131 µM).

`O=c1cc(Cn2cc(COc3ccc(OCc4cn(Cc5cc(=O)oc6c5ccc5ccccc56)nn4)cc3)nn2)c2ccc3ccccc3c2o1` was tested, and the “-logMIC” value [2] was 4.93 and the MIC [2] was 12.5 µg/mL (≈ 18.2 µM).

With `O=c1cc(Cn2cc(COc3ccc(Cl)cc3)nn2)c2cc(Br)ccc2o1` the “-logMIC” value [2] was 4.3 and the MIC [2] was 50 µg/mL (≈ 112 µM).

`O=c1cc(Cn2cc(COc3ccc(Cl)cc3)nn2)c2c(ccc3ccccc32)o1` was tested, and the “-logMIC” value [2] was 4.3 and the MIC [2] was 50 µg/mL (≈ 120 µM).

With `O=c1cc(Cn2cc(COc3ccc(Cl)cc3)nn2)c2ccc(Cl)cc2o1` the “-logMIC” value [2] was 4.3 and the MIC [2] was 50 µg/mL (≈ 124 µM).

In the case of `O=C(O)c1cn(C2CC2)c2cc(N3CCNCC3)c(F)cc2c1=O` [CIPROFLOXACIN], the MIC [2] is reported as 3.12 µg/mL (≈ 9.43 µM).

Compound `NC(=O)c1cnccn1` [PYRAZINAMIDE] has an MIC [2] of 3.12 µg/mL (≈ 25.4 µM).

In the case of `CN[C@@H]1[C@H](O[C@H]2[C@H](O[C@H]3[C@H](O)[C@@H](O)[C@H](N=C(N)N)[C@@H](O)[C@@H]3N=C(N)N)O[C@@H](C)[C@]2(O)C=O)O[C@@H](CO)[C@H](O)[C@H]1O` [STREPTOMYCIN], the MIC [2] is reported as 6.25 µg/mL (≈ 10.7 µM).

— ChEMBL document CHEMBL3734750, “A click chemistry approach for the synthesis of mono and bis aryloxy linked coumarinyl triazoles as anti-tubercular agents” (2015)
